{"source": "patent US20230159556A1", "about": "“NOVEL PROTEIN KINASE INHIBITORS” (TENOVA PHARMACEUTICALS INC., priority 2020, published 2023)", "key": {"[1]": {"system": "BaF3-EGFR-Del19/T790M/C797S cells", "experiment": "In vivo Cell Transplant Xenograft (CTX) model", "design": "species or system BALB/c nude mice", "details": "for tumor growth inhibition rate TGITV (%): end of the experiment", "protocol": "The pharmacological experiments in vivo were performed on BALB/c nude mice that subcutaneously implanted BaF3-EGFR-Del19/T790M/C797S cells. BALB/c nude mice, female, 6-8 weeks, weighted about 16-19 grams, the mice were kept in a special pathogen-free environment, and in a single ventilation cage (3 mice per cage). The bedding and water of all the cages were disinfected before use. All animals were free to obtain standard certified commercial laboratory diets. The BaF3-EGFR-Del19/T790M/C797S cell (5×10^6 cells/mice) was implanted subcutaneously for tumor growth. After 10 days, the experiment was started the average tumor volume reached about 130 mm^3. The mice were divided into 4 groups with 6 mice in each group. Compound A29 was orally administered once daily continuously for 15 days at 5 mg/kg, 15 mg/kg and 45 mg/kg. The tumor volume was measured twice a week with a two-dimensional caliper and the volume was measured in cubic millimeters and calculated by the following formula: V=0.5 a×b2, where a and b were the major and minor diameters of the tumor, respectively. The tumor volume at day n is expressed as Relative Tumor Volume (RTV) and calculated according to the following formula: RTV=TVn/TV0, where TVn is the tumor volume at day n and TV0 is the tumor volume at day 0. The T/C (the ratio of tumor volume in […] mice) is determined by TIC (%)=(mean RTV of treated group)/(mean RTV of control group)×100%. The tumor growth inhibition rate TGITV (%) is calculated using the formula TGITV (%)=(1−T/C)×100%."}, "[2]": {"details": "from COc1cc(N2CCC(N3CCN(C)CC3)CC2)c(CCCCCBr)cc1Nc1ncc(Br)c(Nc2ccc(O)cc2N(C)S(C)(=O)=O)n1; ether bond; K2CO3/KI; DMF; 10.2 mM; 25.0 °C; 16.0 h"}, "Ba/F3_WT cell": {"system": "Ba/F3_WT cell", "experiment": "BaF3 cell proliferation assay (CelltiterGlo, 72 hr)", "format": "cell-based", "details": "Mus musculus, 72 hr incubation", "protocol": "(§1) The BaF3 cell proliferation assay was performed at Pharmaron (www.pharmaron.com, Beijing, China). The Ba/F3_WT and Ba/F3_Del19/T790M/C797S cell lines were maintained in 1640 medium containing 10% FBS, 1*PS and 1*Glutamax. Only cells with viability greater than 90% are used for assays. Dispense 30 μl of cell suspension at 700/well into 384 well microplate, add 30 nl compound solution into 384 cell plate by Echo, cells were incubated for 72 hr in 37° C./5% CO2 incubator, add 30 μl reagent CelltiterGlo assay kit (CTG, Promega) per well and shake plates, incubate the plate (avoiding light) at 37° C./5% CO2 for 30 min. and read the luminescence by Envision. The luminescence values were converted to % Inhibition. Calculate IC50 by fitting % inhibition values and log of compound concentrations to nonlinear regression (dose response−variable slope) with Graphpad 5.0.\n(§2) Y=Bottom+(Top−Bottom)/(1+10^((Log IC50−X)*HillSlope))\n(§3) X: log of inhibitor concentration; Y: % Inhibition."}, "[3]": {"target": "Ba/F3_EGFR_del19/T790M/C797S cell (Homo sapiens, UniProt P00533, T790M/C797S, cells depend on it, form not given)", "sequence (P00533 with tags, fused parts or gaps DEL746-750/T790M/C797S, form open)": "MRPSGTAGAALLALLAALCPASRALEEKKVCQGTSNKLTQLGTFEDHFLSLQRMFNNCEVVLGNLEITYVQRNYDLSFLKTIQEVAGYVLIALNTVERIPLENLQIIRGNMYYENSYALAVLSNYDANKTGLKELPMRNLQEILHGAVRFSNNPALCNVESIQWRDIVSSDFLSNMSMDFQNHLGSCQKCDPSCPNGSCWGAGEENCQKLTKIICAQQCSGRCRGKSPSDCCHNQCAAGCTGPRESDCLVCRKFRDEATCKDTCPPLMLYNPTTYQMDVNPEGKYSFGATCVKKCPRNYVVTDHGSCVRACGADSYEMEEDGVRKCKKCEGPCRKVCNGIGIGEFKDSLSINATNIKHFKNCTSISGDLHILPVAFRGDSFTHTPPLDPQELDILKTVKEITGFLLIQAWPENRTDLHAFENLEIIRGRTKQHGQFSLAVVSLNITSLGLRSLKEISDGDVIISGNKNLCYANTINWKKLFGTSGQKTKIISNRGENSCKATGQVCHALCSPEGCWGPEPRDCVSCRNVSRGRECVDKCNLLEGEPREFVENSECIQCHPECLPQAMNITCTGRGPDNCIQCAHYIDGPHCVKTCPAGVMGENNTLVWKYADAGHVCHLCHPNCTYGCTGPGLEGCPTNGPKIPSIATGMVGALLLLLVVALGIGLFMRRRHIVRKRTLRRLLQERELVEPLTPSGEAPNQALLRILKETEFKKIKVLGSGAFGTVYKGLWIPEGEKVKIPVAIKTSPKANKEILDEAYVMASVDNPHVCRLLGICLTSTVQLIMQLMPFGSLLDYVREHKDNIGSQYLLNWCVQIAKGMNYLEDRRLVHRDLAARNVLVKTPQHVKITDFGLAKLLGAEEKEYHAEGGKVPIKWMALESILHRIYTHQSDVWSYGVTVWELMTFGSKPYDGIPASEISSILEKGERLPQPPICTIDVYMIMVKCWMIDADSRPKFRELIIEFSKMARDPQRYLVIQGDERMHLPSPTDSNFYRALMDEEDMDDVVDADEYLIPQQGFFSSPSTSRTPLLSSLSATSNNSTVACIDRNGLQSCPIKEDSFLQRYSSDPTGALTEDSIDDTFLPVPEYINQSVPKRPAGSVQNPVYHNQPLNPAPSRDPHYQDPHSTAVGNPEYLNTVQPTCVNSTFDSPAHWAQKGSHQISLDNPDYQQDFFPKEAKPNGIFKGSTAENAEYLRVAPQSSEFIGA", "experiment": "BaF3 cell proliferation assay (CelltiterGlo, 72 hr)", "format": "cell-based", "details": "72 hr incubation; read-out: IC50 (nM, Ba/F3_EGFR_del19/T790M/C797S cell proliferation)", "protocol": "as §1, §2, §3"}, "[4]": {"details": "from COc1cc(N2CCC(N3CCN(C)CC3)CC2)c(CCCCCBr)cc1Nc1ncc(Br)c(Nc2ccc(O)cc2N(C)S(C)(=O)=O)n1; ether bond; 18-membered ring; KI/K2CO3; DMF; 10.2 mM"}, "EGFR_L858R/T790M/C797S": {"target": "T1, EGFR_L858R/T790M/C797S (Homo sapiens, UniProt P00533, C797S/L858R/T790M)", "T1 construct": "Reaction Biology Corporation (contract assay provider)", "T1 sequence (P00533 25-1210 T790M/C797S/L858R)": "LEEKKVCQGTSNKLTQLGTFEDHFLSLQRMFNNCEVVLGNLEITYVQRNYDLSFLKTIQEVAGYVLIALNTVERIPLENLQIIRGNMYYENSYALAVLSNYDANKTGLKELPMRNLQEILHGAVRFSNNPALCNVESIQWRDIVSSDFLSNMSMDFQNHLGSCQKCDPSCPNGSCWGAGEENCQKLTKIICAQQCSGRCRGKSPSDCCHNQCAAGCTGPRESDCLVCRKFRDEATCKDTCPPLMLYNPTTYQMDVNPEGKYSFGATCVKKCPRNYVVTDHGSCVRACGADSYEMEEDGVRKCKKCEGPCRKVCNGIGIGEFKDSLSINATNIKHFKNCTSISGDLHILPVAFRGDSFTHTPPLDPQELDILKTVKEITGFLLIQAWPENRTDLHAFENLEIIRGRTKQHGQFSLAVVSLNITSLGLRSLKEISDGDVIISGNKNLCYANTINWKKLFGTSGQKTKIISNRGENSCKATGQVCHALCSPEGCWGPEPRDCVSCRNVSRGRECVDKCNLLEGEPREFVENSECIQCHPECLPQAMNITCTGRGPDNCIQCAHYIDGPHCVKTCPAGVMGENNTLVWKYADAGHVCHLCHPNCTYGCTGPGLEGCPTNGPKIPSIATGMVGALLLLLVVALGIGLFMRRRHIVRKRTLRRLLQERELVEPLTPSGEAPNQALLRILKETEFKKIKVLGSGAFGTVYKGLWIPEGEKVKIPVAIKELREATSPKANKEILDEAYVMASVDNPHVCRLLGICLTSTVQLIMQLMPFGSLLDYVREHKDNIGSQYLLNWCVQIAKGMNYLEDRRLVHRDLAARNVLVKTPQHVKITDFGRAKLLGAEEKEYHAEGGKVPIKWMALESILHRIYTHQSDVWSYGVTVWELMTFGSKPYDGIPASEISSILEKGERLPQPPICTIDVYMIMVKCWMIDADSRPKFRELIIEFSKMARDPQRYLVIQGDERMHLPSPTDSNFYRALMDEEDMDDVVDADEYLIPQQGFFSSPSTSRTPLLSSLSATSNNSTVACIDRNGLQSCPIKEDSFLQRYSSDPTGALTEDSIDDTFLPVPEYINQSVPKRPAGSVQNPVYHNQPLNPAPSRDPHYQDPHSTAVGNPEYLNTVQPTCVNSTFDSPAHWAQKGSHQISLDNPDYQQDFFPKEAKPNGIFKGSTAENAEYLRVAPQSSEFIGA", "experiment": "In vitro biochemical kinase assay (33P-ATP filter-binding, Reaction Biology)", "how_it_was_run": "(§4)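 Compounds preincubated with kinase 20 min at room temperature in Hepes pH 7.5 buffer (10 mM MgCl2, 2 mM DTT, 1% DMSO), then 33P-ATP added for 2 h. Filter-binding radioactivity expressed as % activity remaining versus DMSO; IC50 by curve fit.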"}, "EGFR_WT": {"target": "T2, EGFR_WT (Homo sapiens, UniProt P00533)", "T2 construct": "Reaction Biology Corporation (contract assay provider)", "T2 sequence (P00533 25-1210)": "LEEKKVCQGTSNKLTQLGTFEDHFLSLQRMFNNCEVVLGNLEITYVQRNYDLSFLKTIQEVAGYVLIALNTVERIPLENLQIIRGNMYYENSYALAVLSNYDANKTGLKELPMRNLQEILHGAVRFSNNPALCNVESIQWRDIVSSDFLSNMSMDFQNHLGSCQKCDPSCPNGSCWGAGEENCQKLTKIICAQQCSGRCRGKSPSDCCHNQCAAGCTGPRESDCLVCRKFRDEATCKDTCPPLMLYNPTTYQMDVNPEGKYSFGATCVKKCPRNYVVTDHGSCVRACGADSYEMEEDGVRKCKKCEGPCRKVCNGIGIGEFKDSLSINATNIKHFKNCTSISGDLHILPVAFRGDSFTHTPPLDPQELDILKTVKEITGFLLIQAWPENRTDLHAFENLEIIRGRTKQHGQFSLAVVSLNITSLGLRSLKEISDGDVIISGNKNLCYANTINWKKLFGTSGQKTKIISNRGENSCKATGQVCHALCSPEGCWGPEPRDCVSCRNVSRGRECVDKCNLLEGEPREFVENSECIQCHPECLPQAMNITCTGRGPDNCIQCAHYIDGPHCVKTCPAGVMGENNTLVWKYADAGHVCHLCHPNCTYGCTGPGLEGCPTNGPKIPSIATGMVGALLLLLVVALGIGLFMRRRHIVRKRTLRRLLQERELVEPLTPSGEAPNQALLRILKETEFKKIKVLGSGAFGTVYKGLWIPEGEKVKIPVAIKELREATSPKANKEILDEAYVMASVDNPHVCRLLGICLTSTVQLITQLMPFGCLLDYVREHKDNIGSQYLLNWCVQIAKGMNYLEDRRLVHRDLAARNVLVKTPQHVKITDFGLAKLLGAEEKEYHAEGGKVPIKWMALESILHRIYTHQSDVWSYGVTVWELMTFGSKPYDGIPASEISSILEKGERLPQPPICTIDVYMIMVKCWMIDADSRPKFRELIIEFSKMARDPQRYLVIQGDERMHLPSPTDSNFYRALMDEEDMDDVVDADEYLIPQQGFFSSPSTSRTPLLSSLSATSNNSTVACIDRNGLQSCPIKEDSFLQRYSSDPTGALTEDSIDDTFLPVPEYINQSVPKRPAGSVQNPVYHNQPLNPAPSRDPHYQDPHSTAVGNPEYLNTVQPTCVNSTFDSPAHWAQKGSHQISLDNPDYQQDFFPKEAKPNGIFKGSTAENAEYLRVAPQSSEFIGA", "experiment": "In vitro biochemical kinase assay (33P-ATP filter-binding, Reaction Biology)", "how_it_was_run": "as §4"}}, "data": [{"smiles": "COc1cc(N2CCC(N3CCN(C)CC3)CC2)c2cc1Nc1ncc(Br)c(n1)Nc1ccc(cc1N(C)S(C)(=O)=O)OCCCCC2", "note": "[Compound A29, N-(3^5-bromo-1^6-methoxy-1^4-(4-(4-methylpiperazin-1-yl)piperidin-1-yl)-6-oxa-2,4-diaza-3(2,4)-pyrimidina-1(1,3),5(1,4)-dibenzenacycloundecaphane-5^2-yl)-N-methylmethanesulfonamide]", "values": [{"measurement": "Tumor Volume", "setting": "[1]; 5 mg/kg orally once daily, Day 0", "value": 130, "unit": "mm^3"}, {"measurement": "Tumor Volume", "setting": "[1]; 5 mg/kg orally once daily, Day 2", "value": 212, "unit": "mm^3"}, {"measurement": "Tumor Volume", "setting": "[1]; 5 mg/kg orally once daily, Day 4", "value": 279, "unit": "mm^3"}, {"measurement": "Tumor Volume", "setting": "[1]; 5 mg/kg orally once daily, Day 7", "value": 462, "unit": "mm^3"}, {"measurement": "Tumor Volume", "setting": "[1]; 5 mg/kg orally once daily, Day 9", "value": 633, "unit": "mm^3"}, {"measurement": "Tumor Volume", "setting": "[1]; 5 mg/kg orally once daily, Day 11", "value": 819, "unit": "mm^3"}, {"measurement": "Tumor Volume", "setting": "[1]; 5 mg/kg orally once daily, Day 14", "value": 1061, "unit": "mm^3"}, {"measurement": "tumor growth inhibition rate TGITV (%)", "setting": "[1]; 5 mg/kg orally once daily", "value": 68, "unit": "%"}, {"measurement": "Tumor Volume", "setting": "[1]; 15 mg/kg orally once daily, Day 0", "value": 130, "unit": "mm^3"}, {"measurement": "Tumor Volume", "setting": "[1]; 15 mg/kg orally once daily, Day 2", "value": 171, "unit": "mm^3"}, {"measurement": "Tumor Volume", "setting": "[1]; 15 mg/kg orally once daily, Day 4", "value": 226, "unit": "mm^3"}, {"measurement": "Tumor Volume", "setting": "[1]; 15 mg/kg orally once daily, Day 7", "value": 346, "unit": "mm^3"}, {"measurement": "Tumor Volume", "setting": "[1]; 15 mg/kg orally once daily, Day 9", "value": 469, "unit": "mm^3"}, {"measurement": "Tumor Volume", "setting": "[1]; 15 mg/kg orally once daily, Day 11", "value": 597, "unit": "mm^3"}, {"measurement": "Tumor Volume", "setting": "[1]; 15 mg/kg orally once daily, Day 14", "value": 781, "unit": "mm^3"}, {"measurement": "tumor growth inhibition rate TGITV (%)", "setting": "[1]; 15 mg/kg orally once daily", "value": 76, "unit": "%"}, {"measurement": "Tumor Volume", "setting": "[1]; 45 mg/kg orally once daily, Day 0", "value": 130, "unit": "mm^3"}, {"measurement": "Tumor Volume", "setting": "[1]; 45 mg/kg orally once daily, Day 2", "value": 147, "unit": "mm^3"}, {"measurement": "Tumor Volume", "setting": "[1]; 45 mg/kg orally once daily, Day 4", "value": 172, "unit": "mm^3"}, {"measurement": "Tumor Volume", "setting": "[1]; 45 mg/kg orally once daily, Day 7", "value": 108, "unit": "mm^3"}, {"measurement": "Tumor Volume", "setting": "[1]; 45 mg/kg orally once daily, Day 9", "value": 78, "unit": "mm^3"}, {"measurement": "Tumor Volume", "setting": "[1]; 45 mg/kg orally once daily, Day 11", "value": 25, "unit": "mm^3"}, {"measurement": "Tumor Volume", "setting": "[1]; 45 mg/kg orally once daily, Day 14", "value": 0, "unit": "mm^3"}, {"measurement": "tumor growth inhibition rate TGITV (%)", "setting": "[1]; 45 mg/kg orally once daily", "value": 100, "unit": "%"}, {"measurement": "tumor growth inhibition (in words)", "setting": "[1]; all doses (5, 15, 45 mg/kg)", "value": "significant tumor growth inhibition"}, {"measurement": "ring closure, yield of all isomers", "setting": "[2]", "value": 55, "unit": "%"}, {"measurement": "IC50", "setting": "Ba/F3_WT cell", "value": 1320, "unit": "nM"}, {"measurement": "GI50", "setting": "[3]", "value": 16.4, "unit": "nM"}, {"measurement": "ring closure, isolated yield", "setting": "[4]", "value": 55, "unit": "%"}, {"measurement": "IC50", "setting": "EGFR_L858R/T790M/C797S", "value": 0.5, "unit": "nM"}, {"measurement": "IC50", "setting": "EGFR_WT", "value": 9.2, "unit": "nM"}]}]}
